Test results published in patent US20210386722A1, “Treatment of Covid-19 with Nitroxides” (priority 2021, published 2021).

Legend:
SARS-COV-2 [1] = details: in vivo; cited from earlier work
SARS-COV-2 [2] = assay: Person on Tempol heavily exposed to patient 1; type: in vivo, human; details: Tempol 60 mg/day
Description: By days 5-7 remaining symptoms were mild reversible-on-treatment nasal congestion, pharyngitis, and malaise. […] PCR for SARS-COV-2 RNA was negative at day 10. While not surprising considering the clinical course, in retrospect, this may have signified some direct antiviral effect of the application of Tempol directly to the upper respiratory mucosa and oropharynx by insufflation, inhalation, or gargling. […] After patient discontinued treatment for several weeks, subsequent putative recurrent post-acute symptoms of Covid-19 such as malaise, myalgia, and shortness of breath appeared.

[3] = test system: nonrespiratory coronavirus; details: mouse, in vivo; cited from earlier work
[4] = target: T1, SARS-COV-2 replicase (RNA-Dependent RNA polymerase) (Severe acute respiratory syndrome coronavirus 2, UniProt P0DTD1); details: by oxidizing iron-sulfur centers; cited from earlier work
T1 construct: SARS-COV-2 replicase (RNA-Dependent RNA polymerase)

SARS-COV-2 [5] = details: potentially physiological Tempol concentrations; cited from earlier work
SARS-COV-2 [6] = assay: Treatment of a patient with presumptive Covid-19 (case report); type: in vivo, human
Description: A septuagenarian person experienced sudden frightening onset of severe headache, marked nausea and vomiting, pharyngitis, severe upper respiratory congestion, fever, chills, myalgia, weakness, malaise, and mild to moderate pulmonary congestion. O2 saturation=96%. Patient had been taking Tempol off-and-on for years for cancer prophylaxis and for its possible antiaging activity, as well as some miscellaneous actions such as treatment of periodontitis and osteoarthritis. But, concerned that it would interfere with their activity, they had stopped Tempol about 6 weeks before receiving influenza (Fluvax) and Zoster (Zostavax) immunizations. The presumptive-diagnosis was “Covid-19”, possibly from a medically-related exposure.
Treatment: Nausea and vomiting continued without respite for several hours. Anti-nausea tablets were twice regurgitated intact. Accordingly, treatment was initiated with 30 mg of Tempol PO as the hydroxylamine in a 6% water solution containing 90 mg vitamin-C. Patient kept this down. Along with Tempol-zinc gargles for pharyngitis, intranasal treatment was then initiated with a medication-soaked cotton swab and insufflation, repeated approximately q 6 h as symptoms returned. This was followed by similar doses of Tempol-H three and six hours later, repeated 2-3 times a day, PO for the next ten days. Subsequent intranasal treatment was also repeated 1-3 times a day for 10 days, as needed, titrating to relief of oropharyngeal symptoms as they recurred. On days 2-3, treatment was briefly initiated with hydroxychloroquine, zinc, doxycycline, ivermectin, and famotidine, then withdrawn.

For `CCC(CC)COC(=O)[C@H](C)N[P@](=O)(OC[C@H]1O[C@@](C#N)(c2ccc3c(N)ncnn23)[C@H](O)[C@@H]1O)Oc1ccccc1` [Remdisivir], the “efficacy of systemic treatment of Covid-19” value (SARS-COV-2 [1]) is given as “ineffective or only marginally-effective”.

In the case of `CC1(C)CC(O)CC(C)(C)N1[O]` [Tempol, 4-hydroxy-TEMPO], the “development of coronavirus disease after heavy exposure” value (SARS-COV-2 [2]) is given as “did not develop clinically-significant coronavirus disease”, the murine viral encephalomyelitis [3] is given as “ameliorates” and the “effect on replicase enzyme” value [4] is given as “inactivates this key enzyme”. The “viral replication in vitro” value (SARS-COV-2 [5]) was “markedly inhibits viral replication”, the “PCR for SARS-COV-2 RNA” value (SARS-COV-2 [6]; day 10) was “negative” and the overall symptoms (SARS-COV-2 [6]; days 8-9, excepting slight malaise) was “essentially asymptomatic”. For the same molecule, the “recurrent post-acute symptoms of Covid-19 (malaise, myalgia, shortness of breath)” value (SARS-COV-2 [6]; further treatment as above plus lung inhalation of 0.1 ml of 6% Tempol or Tempol-H solution) was “responded reversibly” and the “efficacy of Tempol itself (non-reduced form)” value (SARS-COV-2 [6]; same doses as Tempol-H) was “effective at the same doses”.

With `CC1(C)CC(O)CC(C)(C)N1O` [Tempol-H] the pulmonary congestion (SARS-COV-2 [6]; after initiation of treatment) was “cleared somewhat”, the nasal congestion (SARS-COV-2 [6]; repeated intranasal treatment (soaked cotton swab and insufflation)) was “quickly reversibly-eased” and the “events experienced by the patient during treatment” value (SARS-COV-2 [6]; that night and several subsequent ones) was ““vivid dreaming””. The headache (SARS-COV-2 [6]; within one to two hours of initiation of treatment) was “eased significantly”.

For `CCN(CCO)CCCC(C)Nc1ccnc2cc(Cl)ccc12` (centres unmarked) [hydroxychloroquine], the “efficacy of systemic treatment of Covid-19” value (SARS-COV-2 [1]) is listed as “ineffective or only marginally-effective”.
